Experimental data: patent US7138361B2, “Herbicidal heterocycles” (E. I. du Pont de Nemours and Company, priority 2000, dated 2006)

Columns and labels:
Experiment in all cases: Test C preemergence
Assay type in all cases: in vivo
Nightshade [1] = tested on: Nightshade
Sunflower = conditions: Rate 125 g/ha; scale 0 to 100, 0 no effect, 100 complete control
[2] = tested on: Surinam grass (Brachiaria decumbens); conditions: for Plant response rating (0 to 100), Surinam grass: visual evaluation after 12 to 14 days
How it was run: (§1)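 Each compound was dissolved in a non-phytotoxic solvent system containing a surfactant and sprayed either on freshly planted seeds (preemergence) or on young plants, 2 to 18 cm high (postemergence). Ratings after 12 to 14 greenhouse days ran from 0, no effect, to 100, complete control.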

[3] = tested on: bermudagrass (Cynodon dactylon); conditions: for Plant response rating (0 to 100 where 0 is no effect and 100 is complete control), Bermudagrass: visual evaluation after 12 to 14 days
How it was run: as §1

[4] = tested on: cocklebur (Xanthium strumarium); conditions: for Plant response rating (0 to 100), Cocklebur: visual evaluation after 12 to 14 days
How it was run: as §1

[5] = tested on: common ragweed (Ambrosia elatior)
How it was run: as §1

corn (Zea mays) = conditions: for Plant response rating (0 to 100), Corn: visual evaluation after 12 to 14 days
How it was run: as §1

[6] = tested on: crabgrass (Digitaria sanguinalis); conditions: for Plant response rating (0 to 100), Crabgrass: visual evaluation after 12 to 14 days
How it was run: as §1

[7] = tested on: giant foxtail (Setaria faberii); conditions: for Plant response rating (0 to 100), Foxtail, Giant: visual evaluation after 12 to 14 days
How it was run: as §1

[8] = tested on: goosegrass (Eleusine indica); conditions: for Plant response rating (0 to 100), Goosegrass: visual evaluation after 12 to 14 days
How it was run: as §1

[9] = tested on: johnsongrass (Sorghum halepense); conditions: for Plant response rating (0 to 100), Johnsongrass: visual evaluation after 12 to 14 days
How it was run: as §1

kochia (Kochia scoparia) = conditions: for Plant response rating (0 to 100), Kochia: visual evaluation after 12 to 14 days
How it was run: as §1

[10] = tested on: lambsquarters (Chenopodium album)
How it was run: as §1

[11] = tested on: morningglory (Ipomoea hederacea)
How it was run: as §1

[12] = tested on: pigweed (Amaranthus retroflexus)
How it was run: as §1

soybean (Glycine max) = tested on: soybean (Glycine max)
How it was run: as §1

[13] = tested on: velvetleaf (Abutilon theophrasti)
How it was run: as §1

[14] = tested on: woolly cupgrass (Eriochloa villosa); conditions: for Plant response rating (0 to 100), Cupgrass, Woolly: visual evaluation after 12 to 14 days
How it was run: as §1

[15] = tested on: yellow nutsedge (Cyperus esculentus)
How it was run: as §1

Nightshade [16] = conditions: Rate 500 g/ha, visual evaluation after 12 to 14 days
[17] = Rate 125 g/ha, scale 0 to 100, 0 no effect, 100 complete control
[18] = preemergence, Rate 62 g/ha, scale 0 to 100
[19] = preemergence, Rate 500 g/ha, visual evaluation after 12 to 14 days
[20] = preemergence, Rate 250 g/ha, scale 0 to 100, 0 no effect, 100 complete control

CSc1cccc(N2CCC(n3ccc(C(C)(C)C)n3)C2=O)c1 (stereo not drawn) [Compound 86]
Plant response rating, Nightshade (Nightshade [1]; Rate 62 g/ha, scale 0 to 100): 0 | Plant response rating, Nightshade (Nightshade [1]; [17]): 0 | Plant response rating, Nightshade (Nightshade [1]; Rate 250 g/ha, scale 0 to 100, 0 no effect, 100 complete control): 0 | Plant response rating, Sunflower (Sunflower): 20 | Plant response rating, Surinam grass [2, 17]: 20 | Plant response rating, Surinam grass [2, 18]: 20 | Plant response rating (0 to 100), Surinam grass ([2]; preemergence, Rate 250 g/ha): 20 | Plant response rating (0 to 100), Surinam grass ([2]; preemergence, Rate 500 g/ha): 30 | Plant response rating, Bermudagrass [3, 17]: 30 | Plant response rating, Bermudagrass [3, 18]: 10 | Plant response rating (0 to 100 where 0 is no effect and 100 is complete control), Bermudagrass ([3]; preemergence, Rate 250 g/ha): 90 | Plant response rating (0 to 100 where 0 is no effect and 100 is complete control), Bermudagrass ([3]; preemergence, Rate 500 g/ha): 100 | Plant response rating, Cocklebur [4, 17]: 0 | Plant response rating, Cocklebur [4, 18]: 0 | Plant response rating (0 to 100), Cocklebur ([4]; preemergence, Rate 250 g/ha): 0 | Plant response rating (0 to 100), Cocklebur ([4]; preemergence, Rate 500 g/ha): 0 | Plant response rating, Ragweed, Common [5, 17]: 0 | Plant response rating, Ragweed, Common [5, 18]: 0 | Plant response rating (0 to 100), Ragweed, Common [5, 19]: 0 | Plant response rating, Ragweed, Common [5, 20]: 0 | Plant response rating, Corn (corn (Zea mays); [17]): 0 | Plant response rating, Corn (corn (Zea mays); [18]): 0 | Plant response rating (0 to 100), Corn (corn (Zea mays); preemergence, Rate 250 g/ha): 0 | Plant response rating (0 to 100), Corn (corn (Zea mays); preemergence, Rate 500 g/ha): 30 | Plant response rating, Crabgrass [6, 17]: 90 | Plant response rating, Crabgrass [6, 18]: 0 | Plant response rating (0 to 100), Crabgrass ([6]; preemergence, Rate 250 g/ha): 100 | Plant response rating (0 to 100), Crabgrass ([6]; preemergence, Rate 500 g/ha): 100 | Plant response rating, Foxtail, Giant [7, 17]: 0 | Plant response rating, Foxtail, Giant [7, 18]: 0 | Plant response rating (0 to 100), Foxtail, Giant ([7]; preemergence, Rate 250 g/ha): 80 | Plant response rating (0 to 100), Foxtail, Giant ([7]; preemergence, Rate 500 g/ha): 100 | Plant response rating, Goosegrass [8, 17]: 90 | Plant response rating, Goosegrass [8, 18]: 100 | Plant response rating (0 to 100), Goosegrass ([8]; preemergence, Rate 250 g/ha): 100 | Plant response rating (0 to 100), Goosegrass ([8]; preemergence, Rate 500 g/ha): 100 | Plant response rating, Johnsongrass [9, 17]: 20 | Plant response rating, Johnsongrass [9, 18]: 20 | Plant response rating (0 to 100), Johnsongrass ([9]; preemergence, Rate 250 g/ha): 40 | Plant response rating (0 to 100), Johnsongrass ([9]; preemergence, Rate 500 g/ha): 50 | Plant response rating, Kochia (kochia (Kochia scoparia); [17]): 90 | Plant response rating, Kochia (kochia (Kochia scoparia); [18]): 70 | Plant response rating (0 to 100), Kochia (kochia (Kochia scoparia); preemergence, Rate 250 g/ha): 100 | Plant response rating (0 to 100), Kochia (kochia (Kochia scoparia); preemergence, Rate 500 g/ha): 100 | Plant response rating, Lambsquarters [10, 17]: 100 | Plant response rating, Lambsquarters [10, 18]: 100 | Plant response rating (0 to 100), Lambsquarters [10, 19]: 100 | Plant response rating, Lambsquarters [10, 20]: 100 | Plant response rating, Morningglory [11, 17]: 0 | Plant response rating, Morningglory [11, 18]: 0 | Plant response rating, Morningglory [11, 20]: 0 | Plant response rating, Pigweed [12, 17]: 100 | Plant response rating, Pigweed [12, 18]: 70 | Plant response rating (0 to 100), Pigweed [12, 19]: 100 | Plant response rating, Pigweed [12, 20]: 0 | Plant response rating, Soybean (soybean (Glycine max); [17]): 0 | Plant response rating, Soybean (soybean (Glycine max); [18]): 0 | Plant response rating (0 to 100), Soybean (soybean (Glycine max); [19]): 0 | Plant response rating, Soybean (soybean (Glycine max); [20]): 0 | Plant response rating, Velvetleaf [13, 17]: 0 | Plant response rating, Velvetleaf [13, 18]: 0 | Plant response rating (0 to 100), Velvetleaf [13, 19]: 70 | Plant response rating, Velvetleaf [13, 20]: 0 | Plant response rating, Cupgrass, Woolly [14, 17]: 30 | Plant response rating, Cupgrass, Woolly [14, 18]: 30 | Plant response rating (0 to 100), Cupgrass, Woolly ([14]; preemergence, Rate 250 g/ha): 90 | Plant response rating (0 to 100), Cupgrass, Woolly ([14]; preemergence, Rate 500 g/ha): 100 | Plant response rating, Nutsedge [15, 17]: 0 | Plant response rating, Nutsedge [15, 18]: 0 | Plant response rating (0 to 100), Nutsedge [15, 19]: 0 | Plant response rating, Nutsedge [15, 20]: 0 | Plant response rating (0 to 100), Nightshade (Nightshade [16]): 10
